Legend:
[1] = test system: CHO cell line producing a recombinant IgG2 monoclonal antibody; test: Batch culture in serum-free DMEM/F12 with supplemental polyamines: viable cell density and viability; assay type: cell-based, Chinese hamster; conditions: 3 days; for Culture viability versus cells without supplemental polyamines (FIG. 1b) / Viable cell density versus basal DMEM/F12 media (FIG. 1a): supplemental polyamine
Procedure: To test the effect of high concentration polyamine media formulations on cell culture performance a CHO cell line producing a recombinant IgG2 monoclonal antibody was seeded at 2.5×10^5 cells/ml in serum-free DMEM/F12 (SAFC, Lenexa, Kans.). DMEM/F12 contains 503 nM putrescine as a component of the commercial formulation. […] Cells were maintained in suspension culture for three days at 36° C. in 5% CO2. Total cell density and viable cell density were measured using a Guava Easy-Cyte™ flow cytometer and Guava Viacount® Flex reagent (Hayward, Calif.) according to manufacture's instructions.
Following three days culture in the polyamine-supplemented-DMEM/F12 media, viable cell density and culture viability were measured, see FIGS. 1a and 1b. Mean viability is presented as percent of viable cells and viable cell density is presented as number of cells/ml.

[2] = test system: CHO cell line producing a recombinant IgG2 monoclonal antibody; conditions: 6 days, VM-Soy
Procedure: VM-Soy basal media contains 0.98 μM (0.1620 mg/l) putrescine as a component of its formulation. […] Cells were seeded at 2.5×10^5 cells/ml and maintained for six days at 36° C. in 5% CO2. Viable cell density and cell viability were measured as described above.
Antibody titer was measured by immunoturbidietric analysis using a Poly-Chem® analyzer and High Sensitivity IgG reagents (Polymedco, Cortlandt Manor, N.Y.) according to the manufacturer's instructions.

[3] = test system: four different recombinant monoclonal IgG2 antibody-producing CHO cell lines; conditions: fed-batch, 10 μM spermine
Procedure: The medium was an enriched formulation of DMEM/F12 medium (ingredients supplied by SAFC, Lenexa, Kans.). The medium contained putrescine at a concentration of 0.014 mM. […] Cells were maintained in suspension culture for 11 days at 36° C., 5% CO2. Cultures were fed an enriched feed medium on the fourth, seventh, and ninth days of culture. The feed volume was equal to nine percent of the initial batch culture volume. […] Glucose was also fed on the fourth, seventh, and ninth days of culture in order to prevent depletion. Viable cell density and cell viability were measured as described above.
The titer of the antibodies produced in cell culture was determined using POROS® (Applied Biosystems) Protein A chromotagraphy HPLC chromotagraphy.

[4] = test system: CHO cell line producing a recombinant IgG1 monoclonal antibody; conditions: fed-batch
Procedure: The medium was an enriched formulation of DMEM/F12 that was less concentrated than the media used in Example 3. The medium already contained putrescine at 0.014 mM. […] Cells were maintained in suspension culture for 8 days at 36° C., 5% CO2. Cultures were fed a rich medium on the fourth day of culture. […] The feed volume was equal to seven percent of the initial batch culture volume. The feed medium contained putrescine and delivered 0.0019 mM putrescine to the cultures as a result of each feed. Glucose was also fed on the fourth day of culture in order to prevent depletion. Viable cell density and cell viability were measured as described above.
Antibody titer was measured by immunoturbidimetric analysis using a Poly-Chem® analyzer and High Sensitivity IgG reagents (Polymedco, Cortlandt Manor, N.Y.) according to the manufacturer's instructions.

[5] = test system: Human-human hybridoma HB4C5 cells; conditions: spermine 2.4 mM or higher; increased over the control; cited from earlier work

Cl.Cl.NCCCCN [putrescine, putrescine dihydrochloride]
Culture viability versus cells without supplemental polyamines (FIG. 1b) [1]: higher | Viable cell density versus basal DMEM/F12 media (FIG. 1a) [1]: higher

NCCCCNCCCN [spermidine, spermidine tetrachdrochloride]
Culture viability versus cells without supplemental polyamines (FIG. 1b) [1]: higher | Viable cell density versus basal DMEM/F12 media (FIG. 1a) [1]: higher

Cl.Cl.Cl.Cl.NCCCNCCCCNCCCN [spermine, spermine tetrahydrochloride]
Spermine concentration giving the greatest increase in cell viability (FIG. 1b) ([1]; DMEM/F12): 50 µM | Cell viability increase compared to unsupplemented control media ([1]; DMEM/F12, 10-50 μM spermine): up to 20% | Viable cell density increase compared to unsupplemented control media ([1]; DMEM/F12, 10-50 μM spermine): up to 49% | Culture viability versus cells without supplemental polyamines (FIG. 1b) [1]: higher | Viable cell density versus basal DMEM/F12 media (FIG. 1a) [1]: higher | Spermine concentration giving the greatest increase in antibody concentration (FIG. 2c) [2]: 50 µM | Spermine concentration giving the greatest increase in viable cell density (FIG. 2a) [2]: 50 µM | Antibody titer increase (greatest) ([2]; 50 μM spermine): 9% | Cell viability increase (greatest) ([2]; 50 μM spermine): 29% | Viable cell density increase (greatest) ([2]; 50 μM spermine): 23% | Antibody titer increase compared to the untreated control ([2]; 10-200 μM spermine): 5-9% | Cell viability increase compared to the unsupplemented control ([2]; 10-200 μM spermine): 22-29% | Viable cell density increase compared to the unsupplemented control ([2]; 10-200 μM spermine): 8-23% | Antibody titer increase compared to the untreated controls (FIG. 3c) ([3]; range over four cell lines): 7-17% | Cell viability versus control without spermine (FIG. 3b) ([3]; 11 days): largely unaffected | Viable cell density versus control without spermine (FIG. 3a) ([3]; 11 days): greater | Effect of spermine concentration on titer ([4]; 0.1-500 μM spermine): dose-dependent response | Viable cell density versus control (FIGS. 4a and 4b) ([4]; 8 days, 0.1-500 μM spermine): greater | Antibody titer increase compared to the untreated controls (FIG. 4d) ([4]; Day 8, 0.1-500 μM spermine): 7-17% | Ending cell viability (FIG. 4c) ([4]; Day 8, 5-50 μM spermine): increased | Protein production [5]: less than 1 mg/l

Source: US20100221823A1, “METHOD FOR CULTURING MAMMALIAN CELLS TO IMPROVE RECOMBINANT PROTEIN PRODUCTION” (Amgen Inc., priority 2007, published 2010)
